Where “and” joins values, the source holds several entries; their conditions need not be identical. Identical values can stand only once.
Experiments:
P. aeruginosa (PAO1) = assay: P. aeruginosa growth curves; format: cell-based, Pseudomonas aeruginosa; conditions: complete MOPS Glutamate, 100 μM
Protocol: FIGS. 2A-2D are wild-type P. aeruginosa growth curves in the presence of test compounds in various media. Related to FIGS. 3, 6A and 6B, 7A and 7B, and 12. (FIG. 2A) Growth curves in complete MOPS/Glutamate. (FIG. 2B) Growth curves in complete MOPS/Glucose. […] (FIG. 2D) Growth curves in SCFM2. P. aeruginosa (PAO1) was grown in a manner identical to the pyocyanin assay (see Experimental Procedures). At each time point, growth was measured by either reading OD600 (for MOPS media) or by serially diluting culture aliquots, plating on LB agar, and counting CFUs after overnight incubation at 37° C. (for SCFM2). Compound concentrations are 100 microM for compounds 1, 2, and 3 and 25 microM for compound 4 in all experiments unless noted otherwise. Error bars represent the standard error of at least two biological replicates (n≥2). BHL=N-butyryl L-homoserine lactone (Cayman Chemicals).
B. Bacterial Strains and Growth Conditions. Protocols for construction of genetic knockout strains are described below in Example 2. All reagents for bacterial culture were purchased from Sigma-Aldrich unless indicated otherwise. Bacteria were routinely cultured in Luria-Bertani broth (LB) at 37° C. with shaking at 200 rpm. Freezer stocks of bacterial strains were maintained at −80° C. in 1:1 LB:glycerol. Bacterial growth was routinely assessed by measuring the culture cell density according to absorbance at 600 nm (OD600341). Cell growth in simulated cystic fibrosis sputum medium (SCFM2) was determined by serially diluting assay cultures, plating on LB agar, and counting the number of colony forming units (CFU) appearing after overnight incubation at 37° C.

RhlR [1] = molecular target: T1, RhlR (Pseudomonas aeruginosa, UniProt P54292); assay: P. aeruginosa reporter assay, RhlR agonism (native ligand); format: cell-based
T1 construct: expressed in transfected cells; host or cells: E. coli JLD271
T1 sequence (P54292 whole entry): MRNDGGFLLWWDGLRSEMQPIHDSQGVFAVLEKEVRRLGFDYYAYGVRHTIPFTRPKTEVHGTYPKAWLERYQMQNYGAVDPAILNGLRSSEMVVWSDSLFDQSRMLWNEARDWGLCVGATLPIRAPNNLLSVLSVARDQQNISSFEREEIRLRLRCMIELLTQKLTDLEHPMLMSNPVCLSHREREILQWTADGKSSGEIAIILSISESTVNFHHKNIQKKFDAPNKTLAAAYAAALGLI
Protocol: (§1) P. aeruginosa reporter assays: Primary assays for RhlR activity in P. aeruginosa were performed as previously reported for LasR, [33] with the following modifications: OdDHL was added to the subculture to a final concentration of 100 nm immediately before it was dispensed into plates to induce expression of RhlR. For RhlR antagonism assays, synthetic ligand (100 mm) was screened against BHL at its EC50 (30 mm). For RhlR agonism assays, synthetic ligand (100 mm) was screened alongside and compared to BHL (at 900 mm) for the system. Dose-response reporter gene assays were performed according to these protocols by using various concentrations of compound.

RhlR [2] = molecular target: T1, RhlR; assay: E. coli reporter gene antagonism assay, RhlR; format: cell-based
Protocol: Percent agonism of a given non-native inducer in a given bacterium and QS system receptor is measured with resepct to the maximum level of agonism (activation) by the native ligand of that receptor in the given bacterium. Percent antagonism is measured in competitive assays. The QS system of interest is activated to 100% with added or endogenous native ligand and the % antagonism of the non-native inducer is assessed with respect to 100% activation by the native inducer. The native ligand which induces LasR is OdDHL, which induces RhlR is BHL and which induces PqsR is PQS. As described herein and in cited references, assays for assessment of % agonism or % atangonism may be performed in E. coli systems (heterologous) or in the bacterium of interest, e.g., Pseudomonas. Dependent upon the assay system employed native ligand may be endogenously present or it may be exogenously supplied to the assay system. […] In antagonism assays using the native strains with functional QS systems, e.g., those of P. aeruginosa, endogenous native ligand is made in the system, so no native ligand is added. In native strains having one or more non-functional QS systems (mutant strains), e.g., P. aeruginosa mutants with non-functional QS systems, native ligand is added at about 10-100× the EC50 of the native ligand. In the agonism assay, native ligand is added as a control. Details of the assays are provided herein in Example 9 and in references cited in Example 9.

RhlR [3] = molecular target: T1, RhlR; assay: P. aeruginosa reporter assay, RhlR antagonism; format: cell-based
Protocol: as §1

Q: How did the “growth in MOPS Glutamate” value (P. aeruginosa (PAO1)) turn out when CCCC(=O)N[C@H]1CCOC1=O [BHL, N-butyryl L-homoserine lactone, reference compound] was run?
A: The value was “also produced the growth delay”.

Q: What about the EC50 (RhlR [1]) of the same molecule?
A: Its EC50 is roughly 8 µM.

Q: With O=C(COc1ccc(I)cc1)N[C@H]1CCSC1=O [RN22] as the molecule, how does the IC50 (RhlR [2]) read?
A: Its IC50 is 19.6 µM.

Q: What about the IC50 (RhlR [3]; IC50, antagonism, P. aeruginosa reporter, 95% CI: 19.6 μM-50.4 μM) of the same molecule?
A: Its IC50 is 31.4 µM and 31 µM.

Q: And the “concentration blocking native ligand activity by 50%, relative to native ligand EC50” value (RhlR [3]; IC50 in P. aeruginosa compared with EC50 of native RhlR ligand)?
A: The value was “less than 4 fold”.

From patent US10322112B2, “Compound combinations for attenuation of bacterial virulence” (priority 2016, dated 2019)
